Source: patent US20090317372A1, “SMALL MOLECULES FOR THE REDUCTION OF HIGH BLOOD GLUCOSE LEVEL” (priority 2008, published 2009)

Columns and labels:
C57/BL/6 mice [1] = assay: Glucose tolerance test with normal mice, dose and time dependence of CCcompound1; type: in vivo
Protocol: Female C57/BL/6 mice weighing 22-23-g and fasted for 14 hours prior to i.p. glucose administration (3-g/kg) were used. None of the animals received any food during the experiment other than glucose. The animals received i.p. injections of 2.0 or 4.5-mg/kg of CCcompound1 either 30 min, 60 min or 120 min prior to glucose administration. Blood samples were taken and glucose concentrations were immediately measured as described earlier. Each group included six animals. The data are the mean±std. dev. of 6 determinations, i.e. one determination with each of the six animals. “-min” indicates the length of period in minutes elapsed between the administration of CCcompound1 (first) and glucose (second).

ob/ob mice = assay: Glucose tolerance test with ob/ob mice; type: in vivo
Protocol: In this experiment, 43 days old ob/ob mice weighing 40.3±1.8-g on average were used. One group of mice (5 animals) remained untreated for the subsequent 14 days. Two other groups of mice (each including 5 animals) were treated on each day for 13 days with 4.5-mg/kg dose of CCcompound1. On the 14th day the first group received only i.p. injection of glucose (3-g/kg) (first column in TABLE 13); the second group first received s.c. injection of CCcompound1, followed six hours later by i.p. injection of glucose (3-g/kg) (second column in TABLE 13); the third group first received s.c. injection of CCcompound1, followed 45 min later by i.p. injection of glucose (3-g/kg) (third column in TABLE 13). In each case, blood was first drawn 1-5 min prior to the administration of glucose, followed by drawing blood samples at 30 min, 60 min, 120 min and 180 min. The results shown in TABLE 13 indicate that CCcompound1 can effectively lower blood glucose level even after administration of a large amount of glucose. […] This probably means that the effect of CCcompound1 on blood glucose level requires its physical presence in the circulation and is not mediated by a secondary mechanism.

PC-3 human tumors = assay: PC-3 tumor/cachexia model: tumor weight and body weight; type: in vivo, mice
Protocol: The experimental PC-3 human tumors were developed in a homozygous line of C.B.-171 cr scid/scid adult female mice that were kept at specified pathogen free (SPF) hygienic level. Treatments with CCcompound1 (4.5 mg/kg) were started on day 12 after tumor implantation and conducted for 5+5 days with 2 treatment-free days inserted between the 2 series of treatments. A control group (10 mice) received no treatment, while another group (10 mice) received 4.5-mg/kg of CCcompound1 once every day between days 12-24. The results, shown in TABLE 8, indicate that between days 12 and 24 after tumor implantation, the prostate tumor caused about 6.9-g loss in lean body weight (4.1-g loss in total body weight). In contrast, animals treated with CCcompound1 actually gained 6.3-g lean body weight.

[2] = tested on: BDF1 (C57/BL/6 female×DBA/2 male) mice; assay: Glucose tolerance test with BDF1 mice, CCcompound1 and sub-optimal insulin; type: in vivo; conditions: CCcompound1 4.5-mg/kg i.p. −15 min and/or insulin 0.02 IU −10 min
Protocol: In this experiment again, a sub-optimal dose of insulin was used to probe if CCcompound1 can enhance the effect of insulin on blood glucose. This time first generation hybrid BDF1 (C57/BL/6 female×DBA/2 male) adult (10-12 weeks old) male mice weighing 28-30-g and fasted for 14 hours before i.p. glucose administration (3-g/kg) were used. These mice were […] than mice in the previous experiment described under Example 5. None of the animals received any food during the experiment other than glucose. The animals received i.p. injections of 4.5-mg/kg of CCcompound1 and 0.02 IU of insulin 15 min and 10 min prior to glucose administration. Blood samples were taken and glucose concentrations in whole blood samples determined as described earlier. Each group included six animals. The data are the mean±std. dev. of 6 determinations, i.e. one determination with each of the six animals.

C57/BL/6 mice [3] = assay: Glucose tolerance test with normal mice (CC1, CC3, CC19); type: in vivo
Protocol: C57/BL/6 female mice weighing 22-23-g and fasted for 14 hours before intraperitoneal (i.p.) administration of glucose (3-g/kg) were used. None of the animals received any food during the experiment other than glucose. The animals received i.p. injections of 4.5-mg/kg of CCcompound1, CCcompound3, or CCcompound19 either 1 hour or 24 hours prior to glucose administration as indicated in TABLE 3. Blood samples were taken from the eyes (canthus), and glucose concentrations in whole blood samples were immediately measured with the Fast Glucose C test. Each group included six animals. The data, shown in TABLE 3, are the mean±std. dev. of 6 determinations, i.e. one determination with each of the six animals. In this and all subsequent experiments the values at 0 min reflect glucose concentration in blood samples collected 1-5 minutes prior to the administration of glucose.

[4] = 4.5 mg/kg group, day 12 (start of treatment)
[5] = 4.5 mg/kg once daily days 12-24, day 24

**Q.** How did the Blood glucose (C57/BL/6 mice [1]; 2 mg/kg i.p. −30 min, 0 min) turn out when Cc1c(OCC(O)C[N+](C)(C)C)cc2c(=O)c3ccccc3sc2c1C.[Cl-] (centres unmarked) [CCcompound 1, [3-(3,4-Dimethyl-9-oxo-9H-thioxanthen-2-yloxy)-2-hydroxypropyl]trimethyl-ammonium chloride] was run?
**A.** 1.30 ± 0.20 mM

**Q.** What about the Blood glucose (C57/BL/6 mice [1]; 2 mg/kg i.p. −30 min, 30 min) of the same compound?
**A.** 5.40 ± 0.45 mM

**Q.** And the Blood glucose (C57/BL/6 mice [1]; 2 mg/kg i.p. −30 min, 60 min)?
**A.** 4.15 ± 0.45 mM

**Q.** And the Blood glucose (C57/BL/6 mice [1]; 2 mg/kg i.p. −30 min, 120 min)?
**A.** 3.50 ± 0.30 mM

**Q.** And the Blood glucose (C57/BL/6 mice [1]; 2 mg/kg i.p. −30 min, 180 min)?
**A.** 2.80 ± 0.30 mM

**Q.** What about the Blood glucose (C57/BL/6 mice [1]; 2 mg/kg i.p. −60 min, 0 min) of the same compound?
**A.** 1.30 ± 0.30 mM

**Q.** What about the Blood glucose (C57/BL/6 mice [1]; 2 mg/kg i.p. −60 min, 30 min) of the same compound?
**A.** 5.70 ± 0.35 mM

**Q.** What about the Blood glucose (C57/BL/6 mice [1]; 2 mg/kg i.p. −60 min, 60 min) of the same compound?
**A.** 4.30 ± 0.30 mM

**Q.** What about the Blood glucose (C57/BL/6 mice [1]; 2 mg/kg i.p. −60 min, 120 min) of the same compound?
**A.** 3.70 ± 0.30 mM

**Q.** And the Blood glucose (C57/BL/6 mice [1]; 2 mg/kg i.p. −60 min, 180 min)?
**A.** 3.25 ± 0.35 mM

**Q.** What about the Blood glucose (C57/BL/6 mice [1]; 4.5 mg/kg i.p. −30 min, 0 min) of the same compound?
**A.** 1.50 ± 0.25 mM

**Q.** What about the Blood glucose (C57/BL/6 mice [1]; 4.5 mg/kg i.p. −30 min, 30 min) of the same compound?
**A.** 5.05 ± 0.20 mM

**Q.** What about the Blood glucose (C57/BL/6 mice [1]; 4.5 mg/kg i.p. −30 min, 60 min) of the same compound?
**A.** 3.55 ± 0.25 mM

**Q.** And the Blood glucose (C57/BL/6 mice [1]; 4.5 mg/kg i.p. −30 min, 120 min)?
**A.** 2.95 ± 0.25 mM

**Q.** What about the Blood glucose (C57/BL/6 mice [1]; 4.5 mg/kg i.p. −30 min, 180 min) of the same compound?
**A.** 1.95 ± 0.30 mM

**Q.** And the Blood glucose (C57/BL/6 mice [1]; 4.5 mg/kg i.p. −60 min, 0 min)?
**A.** 1.40 ± 0.25 mM

**Q.** And the Blood glucose (C57/BL/6 mice [1]; 4.5 mg/kg i.p. −60 min, 30 min)?
**A.** 5.25 ± 0.30 mM

**Q.** What about the Blood glucose (C57/BL/6 mice [1]; 4.5 mg/kg i.p. −60 min, 60 min) of the same compound?
**A.** 3.90 ± 0.20 mM

**Q.** What about the Blood glucose (C57/BL/6 mice [1]; 4.5 mg/kg i.p. −60 min, 120 min) of the same compound?
**A.** 3.20 ± 0.15 mM

**Q.** And the Blood glucose (C57/BL/6 mice [1]; 4.5 mg/kg i.p. −60 min, 180 min)?
**A.** 2.85 ± 0.15 mM

**Q.** And the Blood glucose (C57/BL/6 mice [1]; 4.5 mg/kg i.p. −120 min, 0 min)?
**A.** 1.35 ± 0.15 mM

**Q.** What about the Blood glucose (C57/BL/6 mice [1]; 4.5 mg/kg i.p. −120 min, 30 min) of the same compound?
**A.** 7.80 ± 0.40 mM

**Q.** What about the Blood glucose (C57/BL/6 mice [1]; 4.5 mg/kg i.p. −120 min, 60 min) of the same compound?
**A.** 5.90 ± 0.45 mM

**Q.** And the Blood glucose (C57/BL/6 mice [1]; 4.5 mg/kg i.p. −120 min, 120 min)?
**A.** 4.30 ± 0.40 mM

**Q.** And the Blood glucose (C57/BL/6 mice [1]; 4.5 mg/kg i.p. −120 min, 180 min)?
**A.** 3.00 ± 0.20 mM

**Q.** What about the Glucose lowering effect (C57/BL/6 mice [1]; administered 120 min prior to glucose) of the same compound?
**A.** practically ineffective

**Q.** What about the Blood glucose (ob/ob mice; 4.5-mg/kg daily 13 days, day 14 s.c. 45 min prior to glucose 3-g/kg i.p., 0 min) of the same compound?
**A.** 10.7 ± 0.2 mM

**Q.** And the Blood glucose (ob/ob mice; 4.5-mg/kg daily 13 days, day 14 s.c. 6 hours prior to glucose 3-g/kg i.p., 0 min)?
**A.** 17.8 ± 0.3 mM

**Q.** What about the Blood glucose (ob/ob mice; s.c. 45 min prior to glucose, 30 min) of the same compound?
**A.** 11.9 ± 0.4 mM

**Q.** And the Blood glucose (ob/ob mice; s.c. 45 min prior to glucose, 60 min)?
**A.** 11.4 ± 0.3 mM

**Q.** What about the Blood glucose (ob/ob mice; s.c. 45 min prior to glucose, 120 min) of the same compound?
**A.** 11.0 ± 0.3 mM

**Q.** And the Blood glucose (ob/ob mice; s.c. 45 min prior to glucose, 180 min)?
**A.** 10.9 ± 0.3 mM

**Q.** And the Blood glucose (ob/ob mice; s.c. 6 hours prior to glucose, 30 min)?
**A.** 20.7 ± 0.2 mM

**Q.** And the Blood glucose (ob/ob mice; s.c. 6 hours prior to glucose, 60 min)?
**A.** 20.2 ± 0.2 mM

**Q.** What about the Blood glucose (ob/ob mice; s.c. 6 hours prior to glucose, 120 min) of the same compound?
**A.** 19.6 ± 0.2 mM

**Q.** And the Blood glucose (ob/ob mice; s.c. 6 hours prior to glucose, 180 min)?
**A.** 18.9 ± 0.3 mM

**Q.** What about the “Body weight (lean)” value (PC-3 human tumors; [4]) of the same compound?
**A.** 25.0 g

**Q.** And the Tumor weight (PC-3 human tumors; [4])?
**A.** 0.2 ± 0.1 g

**Q.** And the Total weight (PC-3 human tumors; 4.5 mg/kg group, day 12 after tumor transplantation (start of treatment))?
**A.** 25.2 ± 1.3 g

**Q.** What about the “Body weight (lean)” value (PC-3 human tumors; [5]) of the same compound?
**A.** 30.3 g

**Q.** What about the Total weight (PC-3 human tumors; [5]) of the same compound?
**A.** 31.9 ± 2.5 g

**Q.** What about the Tumor weight (PC-3 human tumors; [5]) of the same compound?
**A.** 1.6 ± 0.4 g

**Q.** And the “Gain in lean body weight” value (PC-3 human tumors; 4.5 mg/kg, between days 12 and 24)?
**A.** 6.3 g

**Q.** What about the “Reduction of tumor volume” value (PC-3 human tumors; 4.5 mg/kg, days 12-24) of the same compound?
**A.** ~50%

**Q.** What about the Blood glucose ([2]; 0 min) of the same compound?
**A.** 3.1 ± 0.2 mM

**Q.** What about the Blood glucose ([2]; 30 min) of the same compound?
**A.** 4.8 ± 0.3 mM

**Q.** What about the Blood glucose ([2]; 60 min) of the same compound?
**A.** 3.5 ± 0.2 mM

**Q.** What about the Blood glucose (C57/BL/6 mice [3]; 4.5-mg/kg i.p. 1 h prior to glucose 3-g/kg i.p., 0 min) of the same compound?
**A.** 1.3 ± 0.3 mM

**Q.** What about the “Reduction of blood glucose level” value (C57/BL/6 mice [3]; 4.5-mg/kg i.p. 1 h prior to glucose, 30th min of test period) of the same compound?
**A.** 33%

**Q.** And the Blood glucose (C57/BL/6 mice [3]; 4.5-mg/kg i.p. 1 h prior to glucose, 30 min)?
**A.** 5.4 ± 0.5 mM

**Q.** And the Blood glucose (C57/BL/6 mice [3]; 4.5-mg/kg i.p. 1 h prior to glucose, 60 min)?
**A.** 4.3 ± 0.4 mM

**Q.** And the Blood glucose (C57/BL/6 mice [3]; 4.5-mg/kg i.p. 1 h prior to glucose, 120 min)?
**A.** 2.8 ± 0.2 mM

**Q.** And the Blood glucose (C57/BL/6 mice [3]; 4.5-mg/kg i.p. 1 h prior to glucose, 180 min)?
**A.** 2.2 ± 0.2 mM

**Q.** And the Blood glucose (C57/BL/6 mice [3]; 4.5-mg/kg i.p. 24 h prior to glucose, 0 min)?
**A.** 1.4 ± 0.2 mM

**Q.** What about the Blood glucose (C57/BL/6 mice [3]; 4.5-mg/kg i.p. 24 h prior to glucose, 30 min) of the same compound?
**A.** 7.0 ± 0.7 mM

**Q.** And the Blood glucose (C57/BL/6 mice [3]; 4.5-mg/kg i.p. 24 h prior to glucose, 60 min)?
**A.** 5.2 ± 0.4 mM

**Q.** And the Blood glucose (C57/BL/6 mice [3]; 4.5-mg/kg i.p. 24 h prior to glucose, 120 min)?
**A.** 3.4 ± 0.3 mM

**Q.** And the Blood glucose (C57/BL/6 mice [3]; 4.5-mg/kg i.p. 24 h prior to glucose, 180 min)?
**A.** 2.8 ± 0.2 mM

**Q.** What about the Glucose lowering effect (C57/BL/6 mice [3]; treatment 24 hours prior to glucose) of the same compound?
**A.** smaller and not reproducible in additional experiments
